Measured values published in publication PMC4685510, “A Cell Biologist’s Field Guide to Aurora Kinase Inhibitors” (Frontiers in Oncology, 2015).

Key:
Assay in all cases: biochemical
Assay type in all cases: biochemical
[1] = target: 363 human kinases (including Aurora A/B/C) (Homo sapiens, UniProt O00506); conditions: STK25/YSK1; for remaining activity at 0.1 µM: 100 nM; for remaining activity at 0.1 µM / remaining activity at 0.5 µM: read-out: % Enzyme Activity (relative to DMSO controls)
Source text: (§1) However, the Aurora A/B selectivity ratios derived from our in vitro and in vivo data can be compared to prioritize inhibitors.

[2] = target: T1, 363 human kinases (including Aurora A/B/C) (Homo sapiens, UniProt Q8TD19); conditions: NEK9; for remaining activity at 0.1 µM: 100 nM; for remaining activity at 0.1 µM / remaining activity at 0.5 µM: read-out: % Enzyme Activity (relative to DMSO controls)
T1 sequence (Q8TD19 1-979): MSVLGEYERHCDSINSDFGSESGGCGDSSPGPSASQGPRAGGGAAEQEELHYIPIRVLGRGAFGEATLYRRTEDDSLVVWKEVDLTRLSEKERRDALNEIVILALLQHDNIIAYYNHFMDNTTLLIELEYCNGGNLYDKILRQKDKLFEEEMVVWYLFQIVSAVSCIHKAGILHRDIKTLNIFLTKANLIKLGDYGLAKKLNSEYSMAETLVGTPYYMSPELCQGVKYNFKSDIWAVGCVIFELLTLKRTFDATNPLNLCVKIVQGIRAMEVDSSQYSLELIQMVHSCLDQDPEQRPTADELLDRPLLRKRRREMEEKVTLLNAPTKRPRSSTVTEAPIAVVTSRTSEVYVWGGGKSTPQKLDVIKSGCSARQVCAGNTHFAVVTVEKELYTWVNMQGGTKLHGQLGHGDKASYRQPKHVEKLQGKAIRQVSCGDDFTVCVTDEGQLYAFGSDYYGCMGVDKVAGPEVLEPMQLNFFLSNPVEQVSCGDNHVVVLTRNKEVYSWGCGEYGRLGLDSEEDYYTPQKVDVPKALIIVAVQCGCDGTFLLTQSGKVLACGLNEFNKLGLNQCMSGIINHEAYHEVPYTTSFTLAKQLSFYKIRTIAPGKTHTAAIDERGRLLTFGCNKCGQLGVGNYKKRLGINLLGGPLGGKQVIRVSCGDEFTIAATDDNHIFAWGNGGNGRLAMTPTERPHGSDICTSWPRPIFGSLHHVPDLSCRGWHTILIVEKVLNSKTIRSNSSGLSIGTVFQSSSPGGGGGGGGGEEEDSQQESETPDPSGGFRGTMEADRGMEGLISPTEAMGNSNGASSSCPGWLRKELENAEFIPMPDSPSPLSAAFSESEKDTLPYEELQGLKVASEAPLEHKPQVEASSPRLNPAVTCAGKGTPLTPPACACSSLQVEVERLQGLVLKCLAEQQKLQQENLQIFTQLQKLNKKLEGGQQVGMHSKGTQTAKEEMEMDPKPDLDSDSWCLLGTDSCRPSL
Source text: as §1

[3] = target: 363 human kinases (including Aurora A/B/C) (Homo sapiens, UniProt P41240); conditions: CSK, [ATP] 15 µM; for remaining activity at 0.1 µM: 100 nM; for remaining activity at 0.1 µM / remaining activity at 0.5 µM: read-out: % Enzyme Activity (relative to DMSO controls)
Sequence of 363 human kinases (including Aurora A/B/C) (Homo sapiens, UniProt P41240) (P41240 whole entry): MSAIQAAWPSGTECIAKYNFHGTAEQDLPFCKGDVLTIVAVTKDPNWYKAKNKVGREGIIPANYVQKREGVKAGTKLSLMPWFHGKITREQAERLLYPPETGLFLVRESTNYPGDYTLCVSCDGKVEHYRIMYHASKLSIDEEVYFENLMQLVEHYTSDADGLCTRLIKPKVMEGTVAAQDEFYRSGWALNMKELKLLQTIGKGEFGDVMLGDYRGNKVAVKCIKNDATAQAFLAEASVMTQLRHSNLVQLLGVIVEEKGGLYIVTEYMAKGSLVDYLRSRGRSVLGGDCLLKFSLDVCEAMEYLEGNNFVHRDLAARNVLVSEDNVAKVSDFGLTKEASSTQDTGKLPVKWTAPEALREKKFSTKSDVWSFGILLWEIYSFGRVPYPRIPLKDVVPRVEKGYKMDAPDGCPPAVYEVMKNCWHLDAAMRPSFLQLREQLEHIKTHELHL
Source text: as §1

[4] = target: 363 human kinases (including Aurora A/B/C) (Homo sapiens, UniProt Q15208); conditions: STK38/NDR1; for remaining activity at 0.1 µM: 100 nM; for remaining activity at 0.1 µM / remaining activity at 0.5 µM: read-out: % Enzyme Activity (relative to DMSO controls)
Sequence of 363 human kinases (including Aurora A/B/C) (Homo sapiens, UniProt Q15208) (Q15208 whole entry): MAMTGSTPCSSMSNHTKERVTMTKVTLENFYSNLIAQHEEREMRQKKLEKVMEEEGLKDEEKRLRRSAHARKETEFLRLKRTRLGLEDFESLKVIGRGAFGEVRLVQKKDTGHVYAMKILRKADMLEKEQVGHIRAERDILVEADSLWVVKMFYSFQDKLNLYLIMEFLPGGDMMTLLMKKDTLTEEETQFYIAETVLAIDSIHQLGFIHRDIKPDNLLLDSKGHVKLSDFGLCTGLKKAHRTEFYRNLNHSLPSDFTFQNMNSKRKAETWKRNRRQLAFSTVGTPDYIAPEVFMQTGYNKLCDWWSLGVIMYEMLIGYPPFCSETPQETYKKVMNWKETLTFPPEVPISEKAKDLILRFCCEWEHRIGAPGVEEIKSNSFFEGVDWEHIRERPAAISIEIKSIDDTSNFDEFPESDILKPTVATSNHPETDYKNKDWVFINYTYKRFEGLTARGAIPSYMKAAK
Source text: as §1

[5] = target: T2, 363 human kinases (including Aurora A/B/C) (Homo sapiens, UniProt Q9UF33); conditions: EPHA6, [ATP] 100 µM; for remaining activity at 0.1 µM: 100 nM; for remaining activity at 0.1 µM / remaining activity at 0.5 µM: read-out: % Enzyme Activity (relative to DMSO controls)
T2 sequence (Q9UF33 23-1036): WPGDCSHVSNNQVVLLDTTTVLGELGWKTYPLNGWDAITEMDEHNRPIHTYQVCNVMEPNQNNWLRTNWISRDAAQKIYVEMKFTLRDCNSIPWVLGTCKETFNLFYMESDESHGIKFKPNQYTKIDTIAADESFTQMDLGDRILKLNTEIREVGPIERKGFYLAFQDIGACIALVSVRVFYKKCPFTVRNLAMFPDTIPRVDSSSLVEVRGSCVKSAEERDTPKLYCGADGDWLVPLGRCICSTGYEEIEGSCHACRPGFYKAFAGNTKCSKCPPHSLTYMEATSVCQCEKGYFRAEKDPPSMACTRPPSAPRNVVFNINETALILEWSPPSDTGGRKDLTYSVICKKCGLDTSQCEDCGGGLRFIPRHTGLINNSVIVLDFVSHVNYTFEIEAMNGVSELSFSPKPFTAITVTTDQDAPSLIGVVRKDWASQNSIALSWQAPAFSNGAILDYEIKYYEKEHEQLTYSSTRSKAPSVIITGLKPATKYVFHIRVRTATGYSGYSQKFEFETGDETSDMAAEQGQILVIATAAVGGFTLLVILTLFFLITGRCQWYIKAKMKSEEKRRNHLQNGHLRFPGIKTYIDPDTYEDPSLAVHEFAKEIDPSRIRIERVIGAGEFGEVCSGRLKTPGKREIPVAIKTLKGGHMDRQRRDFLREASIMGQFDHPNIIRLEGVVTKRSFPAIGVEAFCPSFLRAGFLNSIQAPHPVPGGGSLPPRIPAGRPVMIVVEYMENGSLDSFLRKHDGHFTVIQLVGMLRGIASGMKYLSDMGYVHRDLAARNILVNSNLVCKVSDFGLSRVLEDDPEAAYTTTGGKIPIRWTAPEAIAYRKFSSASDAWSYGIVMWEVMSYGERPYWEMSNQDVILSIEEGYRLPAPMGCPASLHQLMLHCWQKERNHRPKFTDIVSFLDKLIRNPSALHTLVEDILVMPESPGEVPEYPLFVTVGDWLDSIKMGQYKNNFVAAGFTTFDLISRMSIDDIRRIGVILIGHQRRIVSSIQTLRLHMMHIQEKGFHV
Source text: as §1

[6] = target: 363 human kinases (including Aurora A/B/C) (Homo sapiens, UniProt P27448); conditions: MARK3; for remaining activity at 0.1 µM: 100 nM; for remaining activity at 0.1 µM / remaining activity at 0.5 µM: read-out: % Enzyme Activity (relative to DMSO controls)
Sequence of 363 human kinases (including Aurora A/B/C) (Homo sapiens, UniProt P27448) (P27448 whole entry): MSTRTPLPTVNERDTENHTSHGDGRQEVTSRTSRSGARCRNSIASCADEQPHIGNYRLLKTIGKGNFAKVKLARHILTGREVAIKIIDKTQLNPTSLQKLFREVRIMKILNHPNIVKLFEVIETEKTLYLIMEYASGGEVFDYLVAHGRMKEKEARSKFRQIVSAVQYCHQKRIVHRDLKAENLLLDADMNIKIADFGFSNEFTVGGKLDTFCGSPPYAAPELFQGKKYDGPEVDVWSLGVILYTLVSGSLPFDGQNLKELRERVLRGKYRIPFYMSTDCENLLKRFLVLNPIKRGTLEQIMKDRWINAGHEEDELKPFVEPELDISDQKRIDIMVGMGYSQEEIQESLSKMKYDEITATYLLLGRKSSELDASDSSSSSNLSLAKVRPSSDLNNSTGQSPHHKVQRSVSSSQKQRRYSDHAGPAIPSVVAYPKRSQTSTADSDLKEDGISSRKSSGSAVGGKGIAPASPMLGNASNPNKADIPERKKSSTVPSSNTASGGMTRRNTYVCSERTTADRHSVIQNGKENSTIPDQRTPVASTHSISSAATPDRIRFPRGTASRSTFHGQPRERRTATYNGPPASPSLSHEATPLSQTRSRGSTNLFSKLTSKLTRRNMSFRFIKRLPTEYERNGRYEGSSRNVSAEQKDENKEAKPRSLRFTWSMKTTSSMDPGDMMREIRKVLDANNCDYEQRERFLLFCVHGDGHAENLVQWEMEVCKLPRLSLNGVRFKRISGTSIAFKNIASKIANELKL
Source text: as §1

Sequence of 363 human kinases (including Aurora A/B/C) (Homo sapiens, UniProt O00506) (O00506 whole entry): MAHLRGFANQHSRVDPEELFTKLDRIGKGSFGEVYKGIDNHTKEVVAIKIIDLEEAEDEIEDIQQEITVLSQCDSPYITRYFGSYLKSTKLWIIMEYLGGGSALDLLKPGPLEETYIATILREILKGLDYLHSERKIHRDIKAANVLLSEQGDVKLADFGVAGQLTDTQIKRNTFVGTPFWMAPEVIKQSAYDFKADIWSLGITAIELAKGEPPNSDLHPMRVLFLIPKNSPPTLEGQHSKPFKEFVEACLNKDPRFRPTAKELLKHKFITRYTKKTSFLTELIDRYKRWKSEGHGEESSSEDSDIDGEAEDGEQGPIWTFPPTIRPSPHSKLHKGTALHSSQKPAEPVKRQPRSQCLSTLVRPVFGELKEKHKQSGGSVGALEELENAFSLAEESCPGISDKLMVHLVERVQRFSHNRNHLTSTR

Row | Structure (SMILES) | remaining activity at 0.1 µM [1] [%] | remaining activity at 0.1 µM [2] [%] | remaining activity at 0.1 µM [3] [%] | remaining activity at 0.1 µM [4] [%] | remaining activity at 0.1 µM [5] [%] | remaining activity at 0.1 µM [6] [%] | % Enzyme Activity (relative to DMSO controls) ([1]; 500 nM) [%] | remaining activity at 0.5 µM ([1]; 500 nM) [%] | % Enzyme Activity (relative to DMSO controls) ([2]; 500 nM) [%] | remaining activity at 0.5 µM ([2]; 500 nM) [%] | % Enzyme Activity (relative to DMSO controls) ([3]; 500 nM) [%] | remaining activity at 0.5 µM ([3]; 500 nM) [%] | % Enzyme Activity (relative to DMSO controls) ([4]; 500 nM) [%] | remaining activity at 0.5 µM ([4]; 500 nM) [%] | % Enzyme Activity (relative to DMSO controls) ([5]; 500 nM) [%] | remaining activity at 0.5 µM ([5]; 500 nM) [%] | % Enzyme Activity (relative to DMSO controls) ([6]; 500 nM) [%] | remaining activity at 0.5 µM ([6]; 500 nM) [%]
1 | CCn1cc(-c2ccnc3[nH]c(-c4cccc(CN(C)C)c4)cc23)c(-c2ccc(NC(=O)N(C)C)cc2)n1 [GSK1070916] | 98.9 | 83.8 | 99.8 | 88 | 89.4 | 97.2 |  |  |  |  |  |  |  |  |  |  |  | 
2 | O=C(c1cccc(Cl)c1F)N1CCN(Cc2cccc(Nc3nccs3)n2)CC1 [MK-8745] |  |  |  |  |  |  | 99.16 | 100 | 95.13 | 96.6 | 94.61 | 95.8 | 90.44 | 91.2 | 34.30 | 34.6 | 110.19 | 111
3 | O=C(O)[C@]1(Cc2cccc(Nc3nccs3)n2)CC[C@@H](Oc2cccc(Cl)c2F)CC1 [MK-5108] | 104 | 95.2 | 93.9 | 96 | 5.77 | 98.4 |  | 113 |  | 60.7 |  | 67.9 |  | 86.5 |  | 1.6 |  | 107
